The test system of the test is HIV-1 (H9IIIB strain). The test can be described thus: Cell-Based HIV Infection Assay Using a Reporter (MT4-GFP cells). To be noted: Human immunodeficiency virus 1, inflection point (IP) of viral growth inhibition; MT4-GFP cells infected with HIV-1 H9IIIB; 50% normal human serum; mean of at least two independent experiments; read-out: Cell Based IP (50% NHS). Here is the method:
Cell-Based HIV Infection Assay Using a Reporter (“Cell-Based”):
MT4-GFP cells contain a stably integrated HIV long terminal repeat promoter directing the transcription of green fluorescent protein (GFP). When HIV infects the cell, GFP is produced and the cell becomes green. MT4-GFP cells (250,000 cells/mL) were bulk-infected with HIV-1 (H9IIIB strain) at low multiplicity of infection (MOI) in RPM 1640 media, supplemented with 10% FBS for 24 h. Cells were then washed once in RPMI 1640 plus 10% FBS and resuspended in RPMI plus 50% normal human serum (NHS). Test compounds were serial-diluted in DMSO using an ECHO liquid dispenser. A control well included a combination of three HIV drugs (an inhibitor of HIV protease, integrase strand transfer and a non-nucleoside reverse transcriptase inhibitor; triple drug). The infected MT4-GFP cells were added to a 384-well poly-D-lysine coated black plate with clear bottom in which the diluted test compounds were placed. The cells were seeded in the plate at 8,000 cells per well and the final DMSO concentration was 0.4%. Infected cells were quantified at both 24 and 48 h post incubation using an Acumen eX3 plate reader. Viral reproductive ratio (R0) was determined using the number of infected cells at 48 h divided by the number of infected cells at 24 h. Percent viral growth inhibition was calculated by [1−(R−Rtripledrug)/(RDMSO−Rtripledrug)]*100. Compound potency inflection point (IP) was determined with use of a 4-parameter dose response curve analysis.
Data shown in the table reflects the mean of at least two independent experiments.
As for `COC(=O)N[C@H](C(=O)Nc1cccc(F)c1CCC1CNC2CCCS(=O)(=O)N1C2)[C@@H](c1ccc(F)cc1)c1ccc2c(c1)CCC2` (stereo partly drawn) [Example 34, Methyl [(1S,2S)-2-(2,3-dihydro-1H-inden-5-yl)-1-({2-[2-(2,2-dioxido-2-thia-1,7-diazabicyclo[4.3.1]dec-9-yl)ethyl]-3-fluorophenyl}carbamoyl)-2-(4-fluorophenyl)ethyl]carbamate], the EC50 was found to be 23 nM.
The result for `COC(=O)N[C@H](C(=O)Nc1cccc(F)c1CCC1CNC2CCCS(=O)(=O)N1C2)[C@@H](c1ccc(F)cc1)c1cc(F)cc(F)c1` (stereo partly drawn) [Example 35, methyl [(1S,2S)-2-(3,5-difluorophenyl)-1-({2-[2-(2,2-dioxido-2-thia-1,7-diazabicyclo[4.3.1]dec-9-yl)ethyl]-3-fluorophenyl}carbamoyl)-2-(4-fluorophenyl)ethyl]carbamate] reads 3.8 nM; that for `N[C@H](C(=O)Nc1cccc(F)c1CCC1CNC2CCCS(=O)(=O)N1C2)[C@@H](c1ccc(Cl)cc1)C1CCOCC1` (stereo partly drawn) [Example 36, (βR)-4-chloro-N-{2-[2-(2,2-dioxido-2-thia-1,7-diazabicycio[4.3.1]dec-9-yl)ethyl]-3-fluorophenyl}-β-(tetrahydro-2H-pyran-4-yl)-L-phenylalaninamide], 22 nM; that for `COC(=O)N[C@H](C(=O)Nc1cccc(F)c1CCC1CNC2CCCS(=O)(=O)N1C2)[C@@H](c1ccc(Cl)cc1)C1CCOCC1` (stereo partly drawn) [Example 37, methyl [(1S,2R)-2-(4-chlorophenyl)-1-({2-[2-(2,2-dioxido-2-thia-1,7-diazabicyclo[4.3.1]dec-9-yl)ethyl]-3-fluorophenyl}carbamoyl)-2-(tetrahydro-2H-pyran-4-yl)ethyl]carbamate], 13 nM.
For `CC(C)[C@H](c1ccc(Cl)cc1)[C@H](N)C(=O)Nc1cccc(F)c1CCC1CNC2CCCS(=O)(=O)N1C2` (stereo partly drawn) [Example 38, (βR)-4-chloro-N-{2-[2-(2,2-dioxido-2-thia-1,7-diazabicyclo[4.3.1]dec-9-yl)ethyl]-3-fluorophenyl}-β-(1-methylethyl)-L-phenylalaninamide], the EC50 amounted to 28 nM.
In the case of `N[C@H](C(=O)Nc1cccc(F)c1CC[C@H]1CNC2CCCS(=O)(=O)N1C2)C1(c2ccc(F)cc2)CCC(F)(F)CC1` (stereo partly drawn) [Example 39, (2S)-2-amino-2-[4,4-difluoro-1-(4-fluorophenyl)cyclohexyl]-N-(2-{2-[(9S)-2,2-dioxido-2-thia-1,7-diazabicyclo[4.3.1]dec-9-yl]ethyl}-3-fluorophenyl)ethanamide] it was 200 nM; in that of `N[C@H](C(=O)Nc1cccc(F)c1CC[C@H]1CNC2CCCS(=O)(=O)N1C2)C1(c2ccc(Cl)cc2)CCOCC1` (stereo partly drawn) [Example 40, (2S)-2-amino-2-[4-(4-chlorophenyl)tetrahydro-2H-pyran-4-yl]-N-(2-{2-[(9S)-2,2-dioxido-2-thia-1,7-diazabicyclo[4.3.1]dec-9-yl]ethyl}-3-fluorophenyl)ethanamide], 99 nM; in that of `COC(=O)N[C@H](C(=O)Nc1cccc(F)c1CC[C@H]1CNC2CCCS(=O)(=O)N1C2)C1(c2ccc(F)cc2)CCC(F)(F)CC1` (stereo partly drawn) [Example 41, methyl {(1S)-1-[4,4-difluoro-1-(4-fluorophenyl)cyclohexyl]-2-[(2-{2-[(9S)-2,2-dioxido-2-thia-1,7-diazabicyclo[4.3.1]dec-9-yl]ethyl}-3-fluorophenyl)amino]-2-oxoethyl}carbamate], 43 nM.
With `COC(=O)N[C@H](C(=O)Nc1cccc(F)c1CC[C@H]1CNC2CCCS(=O)(=O)N1C2)C1(c2ccc(Cl)cc2)CCOCC1` (stereo partly drawn) [Example 42, methyl {(1S)-1-[4-(4-chlorophenyl)tetrahydro-2H-pyran-4-yl]-2-[(2-{2-[(9S)-2,2-dioxido-2-thia-1,7-diazabicyclo[4.3.1]dec-9-yl]ethyl}-3-fluorophenyl)amino]-2-oxoethyl}carbamate], the EC50 is 31 nM.

For the origin of these results see patent publication US10138255B2, “Piperazine derivatives as HIV protease inhibitors” (Merck Sharp & Dohme Corp., priority 2014, dated 2018).
